Source: ChEMBL document CHEMBL5346873, “Strategic modification of low-activity natural antimicrobial peptides confers antibacterial potential in vitro and in vivo” (Eur J Med Chem, 2023)
In brackets after ≈: the same amount, converted by molar mass.

Assays:
Acinetobacter baumannii = assay: Bactericidal activity against Acinetobacter baumannii incubated for overnight; format: functional
[1] = Hemolytic activity in human RBC at 100 ug/ml incubated for 1 hr; format: toxicity, cell-based, Erythrocyte; settings: human red blood cells (erythrocytes), at 100 µg/mL, read-out: Activity
Staphylococcus aureus = assay: Bactericidal activity against Staphylococcus aureus incubated for overnight; format: functional
Enterococcus faecium [2] = assay: Bactericidal activity against Enterococcus faecium incubated overnight; format: functional
Vibrio vulnificus [3] = assay: Bactericidal activity against Vibrio vulnificus V1 incubated overnight; format: functional
Edwardsiella tarda [4] = assay: Bactericidal activity against Edwardsiella tarda incubated overnight; format: functional
Vibrio harveyi [5] = assay: Antibacterial activity against Vibrio harveyi incubated for 16 to 20 hrs; format: functional; settings: time 16-20 hrs
Enterococcus faecalis [6] = assay: Bactericidal activity against Enterococcus faecalis incubated overnight; format: functional
Vibrio vulnificus [7] = assay: Bactericidal activity against Vibrio vulnificus V2 incubated overnight; format: functional
Vibrio vulnificus [8] = assay: Antibacterial activity against Vibrio vulnificus V3 incubated for 16 to 20 hrs; format: functional; settings: time 16-20 hrs
Enterococcus faecalis [9] = assay: Antibacterial activity against Enterococcus faecalis incubated for 16 to 20 hrs; format: functional; settings: time 16-20 hrs
Candida tropicalis [10] = assay: Antifungal activity against Candida tropicalis incubated for 16 to 20 hrs; format: functional; settings: time 16-20 hrs
Klebsiella aerogenes [11] = assay: Bactericidal activity against Enterobacter aerogenes incubated overnight; format: functional
Klebsiella oxytoca [12] = assay: Bactericidal activity against Klebsiella oxytoca incubated overnight; format: functional
Pseudomonas aeruginosa [13] = assay: Antibacterial activity against Pseudomonas aeruginosa incubated for 16 to 20 hrs; format: functional; settings: time 16-20 hrs
Klebsiella pneumoniae [14] = assay: Antibacterial activity against NDM Klebsiella pneumoniae incubated for 16 to 20 hrs; format: functional; settings: time 16-20 hrs
Streptococcus iniae [15] = assay: Bactericidal activity against Streptococcus iniae incubated overnight; format: functional
Vibrio vulnificus [16] = assay: Antibacterial activity against Vibrio vulnificus V1 incubated for 16 to 20 hrs; format: functional; settings: time 16-20 hrs
Enterococcus faecium [17] = assay: Antibacterial activity against Enterococcus faecium incubated for 16 to 20 hrs; format: functional; settings: time 16-20 hrs
Salmonella enterica [18] = assay: Antibacterial activity against Salmonella enterica incubated for 16 to 20 hrs; format: functional; settings: time 16-20 hrs
Vibrio vulnificus [19] = assay: Bactericidal activity against Vibrio vulnificus V3 incubated overnight; format: functional
Edwardsiella tarda [20] = assay: Antibacterial activity against Edwardsiella tarda incubated for 16 to 20 hrs; format: functional; settings: time 16-20 hrs
Vibrio vulnificus [21] = assay: Antibacterial activity against Vibrio vulnificus 204 incubated for 16 to 20 hrs; format: functional; settings: time 16-20 hrs
Vibrio vulnificus [22] = assay: Antibacterial activity against Vibrio vulnificus V2 incubated for 16 to 20 hrs; format: functional; settings: time 16-20 hrs
Vibrio alginolyticus [23] = assay: Bactericidal activity against Vibrio alginolyticus incubated overnight; format: functional
Klebsiella oxytoca [24] = assay: Antibacterial activity against Klebsiella oxytoca incubated for 16 to 20 hrs; format: functional; settings: time 16-20 hrs
[25] = test system: Staphylococcus haemolyticus; assay: Antibacterial activity against Staphylococcus haemolyticus incubated for 16 to 20 hrs; format: functional; settings: time 16-20 hrs
Salmonella typhimurium [26] = assay: Antibacterial activity against Salmonella typhimurium incubated for 16 to 20 hrs; format: functional, Salmonella enterica subsp. enterica serovar Typhimurium; settings: Salmonella enterica; time 16-20 hrs
Nakaseomyces glabratus [27] = assay: Antifungal activity against Candida glabrata incubated for 16 to 20 hrs; format: functional; settings: time 16-20 hrs
Vibrio alginolyticus [28] = assay: Antibacterial activity against Vibrio alginolyticus incubated for 16 to 20 hrs; format: functional; settings: time 16-20 hrs
[29] = test system: Staphylococcus haemolyticus; assay: Bactericidal activity against Staphylococcus haemolyticus incubated overnight; format: functional
Escherichia coli [30] = assay: Antibacterial activity against Escherichia coli incubated for 16 to 20 hrs; format: functional; settings: time 16-20 hrs
Klebsiella pneumoniae [31] = assay: Bactericidal activity against NDM Klebsiella pneumoniae incubated overnight; format: functional
Streptococcus iniae [32] = assay: Antibacterial activity against Streptococcus iniae incubated for 16 to 20 hrs; format: functional; settings: time 16-20 hrs
Candida tropicalis [33] = assay: Fungicidal activity against Candida tropicalis incubated overnight; format: functional
Vibrio anguillarum [34] = assay: Antibacterial activity against Listonella anguillarum incubated for 16 to 20 hrs; format: functional; settings: time 16-20 hrs
Vibrio harveyi [35] = assay: Bactericidal activity against Vibrio harveyi incubated overnight; format: functional
Aeromonas hydrophila [36] = assay: Bactericidal activity against Aeromonas hydrophila incubated overnight; format: functional
Streptococcus agalactiae [37] = assay: Bactericidal activity against Streptococcus agalactiae incubated overnight; format: functional
Escherichia coli [38] = assay: Bactericidal activity against Escherichia coli incubated overnight; format: functional
Vibrio anguillarum [39] = assay: Bactericidal activity against Listonella anguillarum incubated overnight; format: functional
Salmonella typhimurium [40] = assay: Bactericidal activity against Salmonella typhimurium incubated overnight; format: functional, Salmonella enterica subsp. enterica serovar Typhimurium; settings: Salmonella enterica
Klebsiella aerogenes [41] = assay: Antibacterial activity against Enterobacter aerogenes incubated for 16 to 20 hrs; format: functional; settings: time 16-20 hrs
Salmonella enterica [42] = assay: Bactericidal activity against Salmonella enterica incubated overnight; format: functional
Nakaseomyces glabratus [43] = assay: Fungicidal activity against Candida glabrata incubated overnight; format: functional
Aeromonas hydrophila [44] = assay: Antibacterial activity against Aeromonas hydrophila incubated for 16 to 20 hrs; format: functional; settings: time 16-20 hrs
Pseudomonas aeruginosa [45] = assay: Bactericidal activity against Pseudomonas aeruginosa incubated overnight; format: functional
Streptococcus agalactiae [46] = assay: Antibacterial activity against Streptococcus agalactiae incubated for 16 to 20 hrs; format: functional; settings: time 16-20 hrs
Vibrio vulnificus [47] = assay: Bactericidal activity against Vibrio vulnificus 204 incubated overnight; format: functional

Q: With H-FKWKSVLKIVDIFVDIYF-OH as the compound, how does the MBC (Acinetobacter baumannii) read?
A: > 100 µg/mL

Q: What about the hemolysis at 1 h, 100 ug/ml [1] of the same compound?
A: 67.8%

Q: And the MBC (Staphylococcus aureus)?
A: > 100 µg/mL

Q: What does the source list for H-GKCIAKAIFKGAKKLLKKLVNP-OH?
A: MBC (Acinetobacter baumannii): 3.12 µg/mL; hemolysis at 1 h, 100 ug/ml [1]: 25.8%; MBC (Staphylococcus aureus): 100 µg/mL

Q: Which MBC (Acinetobacter baumannii) does the source give for H-GKCIAKAILKGAKKLLKKLVNP-OH here?
A: 1.56 µg/mL

Q: What about the hemolysis at 1 h, 100 ug/ml [1] of the same compound?
A: 31.8%

Q: And the MBC (Staphylococcus aureus)?
A: 100 µg/mL

Q: With H-KKCIAKAILKKAKKLLDDLVNP-OH as the compound, how does the MBC (Acinetobacter baumannii) read?
A: 6.25 µg/mL

Q: What about the hemolysis at 1 h, 100 ug/ml [1] of the same compound?
A: 0%

Q: And the MBC (Staphylococcus aureus)?
A: > 100 µg/mL

Q: Which MBC (Acinetobacter baumannii) does the source give for H-GECIWDAIFHGAKHFLHRLVNP-OH here?
A: > 100 µg/mL

Q: What about the hemolysis at 1 h, 100 ug/ml [1] of the same compound?
A: 28.5%

Q: And the MBC (Staphylococcus aureus)?
A: > 100 µg/mL

Q: With `CC1(C)S[C@@H]2[C@H](NC(=O)[C@H](N)c3ccccc3)C(=O)N2[C@H]1C(=O)O` [AMPICILLIN] as the compound, how does the MBC (Enterococcus faecium [2]) read?
A: < 1.56 µg/mL

Q: What about the MBC (Vibrio vulnificus [3]) of the same compound?
A: 50 µg/mL (≈ 143 µM)

Q: And the MBC (Edwardsiella tarda [4])?
A: 3.12 µg/mL (≈ 8.94 µM)

Q: What about the MIC (Vibrio harveyi [5]) of the same compound?
A: > 100 µg/mL

Q: What about the MBC (Enterococcus faecalis [6]) of the same compound?
A: > 100 µg/mL

Q: What about the MBC (Vibrio vulnificus [7]) of the same compound?
A: 50 µg/mL (≈ 143 µM)

Q: And the MIC (Vibrio vulnificus [8])?
A: 50 µg/mL (≈ 143 µM)

Q: What about the MIC (Enterococcus faecalis [9]) of the same compound?
A: 100 µg/mL (≈ 286 µM)

Q: And the MIC (Candida tropicalis [10])?
A: > 100 µg/mL

Q: What about the MBC (Klebsiella aerogenes [11]) of the same compound?
A: 100 µg/mL (≈ 286 µM)

Q: And the MBC (Klebsiella oxytoca [12])?
A: > 100 µg/mL

Q: And the MIC (Pseudomonas aeruginosa [13])?
A: > 100 µg/mL

Q: What about the MIC (Klebsiella pneumoniae [14]) of the same compound?
A: > 100 µg/mL

Q: What about the MBC (Streptococcus iniae [15]) of the same compound?
A: 6.25 µg/mL (≈ 17.9 µM)

Q: And the MIC (Vibrio vulnificus [16])?
A: 50 µg/mL (≈ 143 µM)

Q: What about the MIC (Enterococcus faecium [17]) of the same compound?
A: < 1.56 µg/mL

Q: What about the MIC (Salmonella enterica [18]) of the same compound?
A: 3.12 µg/mL (≈ 8.94 µM)

Q: And the MBC (Vibrio vulnificus [19])?
A: 50 µg/mL (≈ 143 µM)

Q: And the MIC (Edwardsiella tarda [20])?
A: 3.12 µg/mL (≈ 8.94 µM)

Q: And the MIC (Vibrio vulnificus [21])?
A: > 100 µg/mL

Q: What about the MIC (Vibrio vulnificus [22]) of the same compound?
A: 50 µg/mL (≈ 143 µM)

Q: And the MBC (Vibrio alginolyticus [23])?
A: > 100 µg/mL

Q: And the MIC (Klebsiella oxytoca [24])?
A: > 100 µg/mL

Q: What about the MIC [25] of the same compound?
A: < 1.56 µg/mL

Q: What about the MIC (Salmonella typhimurium [26]) of the same compound?
A: > 100 µg/mL

Q: What about the MIC (Nakaseomyces glabratus [27]) of the same compound?
A: > 100 µg/mL

Q: And the MIC (Vibrio alginolyticus [28])?
A: > 100 µg/mL

Q: What about the MBC [29] of the same compound?
A: < 1.56 µg/mL

Q: And the MIC (Escherichia coli [30])?
A: 3.12 µg/mL (≈ 8.94 µM)

Q: What about the MBC (Klebsiella pneumoniae [31]) of the same compound?
A: > 100 µg/mL

Q: What about the MIC (Streptococcus iniae [32]) of the same compound?
A: 6.25 µg/mL (≈ 17.9 µM)

Q: What about the MFC (Candida tropicalis [33]) of the same compound?
A: > 100 µg/mL

Q: And the MIC (Vibrio anguillarum [34])?
A: > 100 µg/mL

Q: And the MBC (Vibrio harveyi [35])?
A: > 100 µg/mL

Q: What about the MBC (Aeromonas hydrophila [36]) of the same compound?
A: > 100 µg/mL

Q: What about the MBC (Streptococcus agalactiae [37]) of the same compound?
A: < 1.56 µg/mL

Q: And the MBC (Escherichia coli [38])?
A: 6.25 µg/mL (≈ 17.9 µM)

Q: What about the MBC (Vibrio anguillarum [39]) of the same compound?
A: > 100 µg/mL

Q: And the MBC (Salmonella typhimurium [40])?
A: > 100 µg/mL

Q: What about the MIC (Klebsiella aerogenes [41]) of the same compound?
A: 50 µg/mL (≈ 143 µM)

Q: And the MBC (Salmonella enterica [42])?
A: 6.25 µg/mL (≈ 17.9 µM)

Q: And the MFC (Nakaseomyces glabratus [43])?
A: > 100 µg/mL

Q: And the MIC (Aeromonas hydrophila [44])?
A: > 100 µg/mL

Q: And the MBC (Pseudomonas aeruginosa [45])?
A: > 100 µg/mL

Q: What about the MIC (Streptococcus agalactiae [46]) of the same compound?
A: < 1.56 µg/mL

Q: What about the MBC (Vibrio vulnificus [47]) of the same compound?
A: > 100 µg/mL
